Laboratory results taken from ChEMBL document CHEMBL5465560, “Selectivity Literature for EUbOPEN Chemogenomic Library” (2024).

Key:
[1] = biological target: T1, Phosphatidylinositol 3-kinase C2 domain-containing subunit gamma (Homo sapiens) (UniProt O75747); assay: Selectivity interaction (KinomeScan (DiscoverX)) EUB0000618a PIK3C2G; details: at 10 µM
T1 sequence (whole entry): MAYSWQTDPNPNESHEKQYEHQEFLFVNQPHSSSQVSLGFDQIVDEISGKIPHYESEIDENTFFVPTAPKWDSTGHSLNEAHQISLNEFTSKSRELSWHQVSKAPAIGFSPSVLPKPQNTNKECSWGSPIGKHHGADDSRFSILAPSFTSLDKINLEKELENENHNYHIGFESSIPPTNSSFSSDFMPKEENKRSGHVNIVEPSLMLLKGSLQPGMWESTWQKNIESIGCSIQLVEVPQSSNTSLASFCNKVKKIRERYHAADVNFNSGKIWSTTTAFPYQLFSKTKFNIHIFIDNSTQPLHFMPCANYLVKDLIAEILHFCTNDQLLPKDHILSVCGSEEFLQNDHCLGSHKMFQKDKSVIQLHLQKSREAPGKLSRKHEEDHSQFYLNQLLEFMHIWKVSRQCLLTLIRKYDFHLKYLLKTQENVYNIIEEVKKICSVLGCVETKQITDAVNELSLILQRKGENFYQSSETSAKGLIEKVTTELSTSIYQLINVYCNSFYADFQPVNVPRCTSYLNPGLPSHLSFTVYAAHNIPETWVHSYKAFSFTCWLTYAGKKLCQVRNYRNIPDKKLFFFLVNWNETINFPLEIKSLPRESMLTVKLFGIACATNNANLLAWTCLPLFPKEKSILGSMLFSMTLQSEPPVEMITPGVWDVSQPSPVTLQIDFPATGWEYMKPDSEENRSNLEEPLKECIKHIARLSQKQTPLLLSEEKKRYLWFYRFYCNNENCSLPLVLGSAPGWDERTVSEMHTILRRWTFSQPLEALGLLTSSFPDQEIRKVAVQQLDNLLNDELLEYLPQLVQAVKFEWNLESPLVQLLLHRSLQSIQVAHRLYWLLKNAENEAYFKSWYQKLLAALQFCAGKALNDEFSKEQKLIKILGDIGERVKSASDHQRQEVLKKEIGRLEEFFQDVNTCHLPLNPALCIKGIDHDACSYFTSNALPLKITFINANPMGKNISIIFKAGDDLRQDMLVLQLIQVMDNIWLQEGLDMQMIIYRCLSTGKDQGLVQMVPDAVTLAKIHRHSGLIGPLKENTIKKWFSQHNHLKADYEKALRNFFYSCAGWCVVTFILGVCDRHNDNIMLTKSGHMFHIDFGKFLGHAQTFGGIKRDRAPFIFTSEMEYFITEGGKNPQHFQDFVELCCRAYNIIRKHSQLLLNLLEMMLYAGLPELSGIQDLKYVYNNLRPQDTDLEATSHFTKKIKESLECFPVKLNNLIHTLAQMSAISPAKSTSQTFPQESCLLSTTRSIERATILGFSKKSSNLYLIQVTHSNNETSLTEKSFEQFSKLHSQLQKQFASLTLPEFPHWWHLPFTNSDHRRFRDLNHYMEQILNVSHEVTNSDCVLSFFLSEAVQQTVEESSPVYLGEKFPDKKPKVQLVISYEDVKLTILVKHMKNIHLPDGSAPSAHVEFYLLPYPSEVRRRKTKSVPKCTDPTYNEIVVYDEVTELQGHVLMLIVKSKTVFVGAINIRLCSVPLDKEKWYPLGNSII

[2] = biological target: T2, Tyrosine-protein kinase JAK3 (Homo sapiens) (UniProt P52333); details: at 10 µM
T2 sequence (whole entry): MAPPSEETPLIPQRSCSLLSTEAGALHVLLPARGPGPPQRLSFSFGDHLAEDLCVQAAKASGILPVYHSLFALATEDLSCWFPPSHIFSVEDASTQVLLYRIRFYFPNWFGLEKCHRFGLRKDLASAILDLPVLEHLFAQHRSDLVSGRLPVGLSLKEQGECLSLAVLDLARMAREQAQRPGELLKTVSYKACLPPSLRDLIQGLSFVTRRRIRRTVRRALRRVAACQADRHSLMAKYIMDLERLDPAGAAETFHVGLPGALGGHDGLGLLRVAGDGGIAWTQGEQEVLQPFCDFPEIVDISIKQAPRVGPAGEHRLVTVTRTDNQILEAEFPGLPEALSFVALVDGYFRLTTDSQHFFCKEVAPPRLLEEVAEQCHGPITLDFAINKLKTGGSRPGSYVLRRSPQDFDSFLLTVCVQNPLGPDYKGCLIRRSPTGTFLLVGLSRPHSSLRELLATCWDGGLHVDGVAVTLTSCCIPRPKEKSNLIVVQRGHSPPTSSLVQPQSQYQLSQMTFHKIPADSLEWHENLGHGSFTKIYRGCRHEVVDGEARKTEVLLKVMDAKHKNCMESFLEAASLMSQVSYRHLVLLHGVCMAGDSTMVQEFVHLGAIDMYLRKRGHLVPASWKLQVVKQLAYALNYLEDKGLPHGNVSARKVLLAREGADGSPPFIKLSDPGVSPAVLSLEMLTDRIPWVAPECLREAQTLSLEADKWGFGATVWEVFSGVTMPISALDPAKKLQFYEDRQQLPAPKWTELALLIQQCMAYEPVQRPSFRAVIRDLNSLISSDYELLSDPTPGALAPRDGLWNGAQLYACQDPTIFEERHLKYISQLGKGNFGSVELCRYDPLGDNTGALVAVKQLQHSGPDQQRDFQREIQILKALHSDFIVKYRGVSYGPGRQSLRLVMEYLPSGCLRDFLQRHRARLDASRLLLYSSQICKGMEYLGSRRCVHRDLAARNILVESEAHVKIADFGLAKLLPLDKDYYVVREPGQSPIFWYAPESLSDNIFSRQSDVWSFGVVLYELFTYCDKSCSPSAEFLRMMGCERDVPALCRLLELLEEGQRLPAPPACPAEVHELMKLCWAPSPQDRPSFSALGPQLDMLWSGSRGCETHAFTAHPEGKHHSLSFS

Row | Structure (SMILES) | % of control [1] | % of control [2]
1 | O[C@H]1CC[C@H](Nc2ncc3nc(Nc4c(F)cc(F)cc4F)n([C@H]4CCOC4)c3n2)CC1 | 93% | –
2 | Cc1cc([C@@H](C)Nc2ccccc2C(=O)O)c2nc(N3CCOCC3)cc(=O)n2c1 [AZD-6482] | – | 94%
